Common to all, as to type: cell-based
Test [1] deals with Bacillus subtilis (ATCC-19659). The test can be described thus: Broth microdilution MIC. The settings on record: ATCC19659, B.subtilis, read-out: MIC. The protocol:
(§1) ATCC: American Type Culture Collection; NRRL: Northern Regional Research Laboratory The compounds 2(a-c) obtained could only be completely solubilised with dimethyl sulphoxide (DMSO) and the highest possible stock solutions of 50 mg.mL-1 were prepared. […]
(§2) 3.1. Determination of Minimum Inhibition Concentration (MIC)
(§3) The minimum inhibition concentration (MIC) values of the compounds 2(a-c) against the test bacteria used in the study were determined according to the broth microdilution method.[1-2] MHB or SDB was used as test medium and bacterial and yeast suspensions were prepared at 0.5 Mc Farland concentration for each test bacteria. Double layer serial dilutions were prepared in "U" type 96-well microtiter plates. Medium+bacteria suspensions containing only medium in the first row, medium+bacteria in the second row and the final concentrations of the synthesised substances in the other rows between 25 mg.mL-1 and […] were added to the wells with a final volume of 200
(§4) μL. Ampicillin, Kanamycin and Amphotericin B standard antibiotics were used as positive controls.
(§5) Bacteria were incubated at 37±0.1 °C and C. albicans at 30±0.1 °C for 24-48 hours and the lowest concentration without growth was determined as MIC. Tests were performed in two parallel runs and mean values were given as a result. […]
A general note: Dilution methods test growth across graded concentrations, often in twofold steps.

The test system of test [2] is Micrococcus luteus (NRRL-B-1018). The test can be described thus: Broth microdilution MIC. The conditions noted are these: NRRLB1018, M.luteus. The protocol:
Micrococcus luteus (NRRL-B-1018) […]
as §1, §2, §3, §4, §5

In test [3] the test system is Bacillus subtilis (ATCC-19659). The test is described as follows: Agar diffusion, zone of inhibition. The settings on record: B.subtilis, compounds at 50 mg mL^−1; for zone of inhibition at 50 mg/mL: Bacillus subtilis, ATCC19659. The text has this:
(§6) The antibacterial and antifungal activities were reported utilizing the method described by the Clinical & Laboratory Standards Institute.^[ [31], [32] ^] Agar diffusion method was used to determine the antimicrobial activity of the synthesized substances. The media used were mueller hinton agar (MHA) for bacteria and sabouraud‐dextrose agar (SDA) for fungi (Merck), as recommended by the manufacturer.
(§7) The synthesized compounds were initially investigated for their antimicrobial activity to elucidate the potential therapeutic utility against various pathogenic microbes using the agar plate diffusion method. The compounds were tested at a concentration of 50 mg mL^−1, and the antibiotics (ampicillin, kanamycin, and amphotericin B) were used at 5 mg mL^−1. […] K.pneumoniae and B.cereus were resistant to ampicillin, while they were susceptible to kanamycin with inhibition values of 30 and 26 mm, respectively. No antimicrobial activity of the compounds was observed against E.faecalis, S.typhimurium, K.pneumoniae, and for the fungus compared to Amphotericin B (20 mm). […]
(§8) ATCC: American Type Culture Collection; NRRL: Northern Regional Research Laboratory The compounds 2(a-c) obtained could only be completely solubilised with dimethyl sulphoxide (DMSO) and the highest possible stock solutions of 50 mg.mL-1 were prepared. To these wells 50 μl of the previously prepared substances were transferred using sterile micropipette tips. For comparison, Ampicillin and kanamycin antibiotics for bacteria and Amphotericin B antibiotics for fungus were used as positive controls and DMSO was used as negative control. The prepared petri plates were kept at +4°C for about 1 hour and then the bacterial cultures were incubated at 37°C for 18-24 hours and mould cultures at 27-30°C for 48-72 hours. The zones formed were measured millimetrically with callipers. The experiments were performed with three repetitions. […]
(In general: A growth-free zone around the sample is the usual read-out of agar diffusion tests.)

The subject of test [4] is Staphylococcus aureus (ATCC 29213). The test can be described thus: Broth microdilution MIC. The conditions noted are these: ATCC29213, S.aureus. The protocol:
Staphylococcus aureus (ATCC 29213) […]
as §1, §2, §3, §4, §5

For test [5], the system named is Pseudomonas aeruginosa (ATCC 27853). The test can be described thus: Agar diffusion, zone of inhibition. The settings on record: P.aeruginosa, compounds at 50 mg mL^−1; for zone of inhibition at 50 mg/mL: Pseudomonas aeruginosa, ATCC27853.
From the text: as §6, §7
Pseudomonas aeruginosa (ATCC 27853) […]
as §8

MIC and zone of inhibition data for three compounds are collected here from paper PMC12598805, “Crystal Structure–Activity Relationship of Some MeO Phenylacrylonitriles: Dual Antimicrobial–Cytotoxic Effects and in Silico Perspectives” (ChemistryOpen, 2025).

≈ marks a conversion by molar mass, not a printed value.

Take `COc1ccc(/C=C(\C#N)c2ccc(F)cc2)cc1` [2b]: the MIC in test [1] turned out to be 25 mg/mL (≈ 98.7 mM); in test [2], 12.5 mg/mL (≈ 49.4 mM); in test [4], 12.5 mg/mL (≈ 49.4 mM). Besides, the zone of inhibition in test [3] is recorded as 13 ± 2.12 mm; in test [5], 12 ± 0.71 mm. Also, the zone of inhibition at 50 mg/mL was 13 mm in test [3] and 12 mm in test [5].

Turning to `COc1ccc(/C=C(\C#N)c2cc(C(F)(F)F)cc(C(F)(F)F)c2)cc1` [2c], the MIC in test [1] turned out to be 25 mg/mL (≈ 67.3 mM); in test [2], 2.5 mg/mL (≈ 6.73 mM); in test [4], 6.25 mg/mL (≈ 16.8 mM). Further, the zone of inhibition in test [3] stood at 14 ± 0 mm; in test [5], 15 ± 0.71 mm. In addition, the values for the zone of inhibition at 50 mg/mL in test [3] and in test [5] were 14 mm and 15 mm, respectively.

With `COc1ccc(C=C(C#N)c2ccccc2)cc1` [2a, 3‐(4‐methoxyphenyl)‐2‐phenylacrylonitrile], the MIC in test [1] was determined as 25 mg/mL (≈ 106 mM); in test [2] it was 6.25 mg/mL (≈ 26.6 mM); in test [4], 12.5 mg/mL (≈ 53.1 mM). The zone of inhibition is 13 ± 0.71 mm in test [3] and 13 ± 1.41 mm in test [5]. For the same compound, the zone of inhibition at 50 mg/mL in test [3] and in test [5] was 13 mm in each case.

What is called MIC is the lowest concentration found to suppress growth. As a reminder, the zone of inhibition is the extent of the growth-free halo in a diffusion test. The low end stands for little suppression of growth, the high end for wide suppression of growth.
